# Assay results as given in the supplement of paper PMC8149375.
# How the values were obtained:
# Conditions in all cases: treatment: drug alone; 5 days
# 769-P [1] = test: GI50, drug alone; higher = less potent
# Procedure: (§1)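 Primary HTS: 8 RCC cell lines treated with 8 doses (up to 10 uM) of each library drug alone for 5 days; viability read by CellTiter-Glo and normalised to DMSO. GI50 was fitted with XLfit (4-parameter), AUC is the area under the dose-response curve, and minimum viability is the lowest fraction of DMSO viability across doses.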
# 786-O [2] = test: GI50, drug alone; higher = less potent
# Procedure: as §1
# A498 [3] = test: GI50, drug alone; higher = less potent
# Procedure: as §1
# ACHN [4] = test: GI50, drug alone; higher = less potent
# Procedure: as §1
# CAKI-1 [5] = test: GI50, drug alone; higher = less potent
# Procedure: as §1
# SN12C [6] = test: GI50, drug alone; higher = less potent
# Procedure: as §1
# TK-10 [7] = test: GI50, drug alone; higher = less potent
# Procedure: as §1
# UO-31 [8] = test: GI50, drug alone; higher = less potent
# Procedure: as §1
# 769-P [9] = test: minimum viability across doses, drug alone, relative to DMSO (fraction); higher = less growth inhibition
# Procedure: as §1
# 786-O [10] = test: as above
# Procedure: as §1
# A498 [11] = test: as above
# Procedure: as §1
# ACHN [12] = test: as above
# Procedure: as §1
# CAKI-1 [13] = test: as above
# Procedure: as §1
# SN12C [14] = test: as above
# Procedure: as §1
# TK-10 [15] = test: as above
# Procedure: as §1
# UO-31 [16] = test: as above
# Procedure: as §1
# 769-P [17] = test: AUC of dose-response viability curve, drug alone (arbitrary (AUC of normalised viability)); higher = less growth inhibition
# Procedure: as §1
# 786-O [18] = test: as above
# Procedure: as §1
# A498 [19] = test: as above
# Procedure: as §1
# ACHN [20] = test: as above
# Procedure: as §1
# CAKI-1 [21] = test: as above
# Procedure: as §1
# SN12C [22] = test: as above
# Procedure: as §1
# TK-10 [23] = test: as above
# Procedure: as §1
# UO-31 [24] = test: as above
# Procedure: as §1
"GI50, drug alone (786-O [2]) [nM]","GI50, drug alone (ACHN [4]) [nM]",Compound,"GI50, drug alone (769-P [1]) [nM]","GI50, drug alone (A498 [3]) [nM]","GI50, drug alone (CAKI-1 [5]) [nM]","GI50, drug alone (SN12C [6]) [nM]","GI50, drug alone (TK-10 [7]) [nM]","GI50, drug alone (UO-31 [8]) [nM]",minimum viability across doses (769-P [9]),minimum viability across doses (786-O [10]),minimum viability across doses (A498 [11]),minimum viability across doses (ACHN [12]),minimum viability across doses (CAKI-1 [13]),minimum viability across doses (SN12C [14]),minimum viability across doses (TK-10 [15]),minimum viability across doses (UO-31 [16]),AUC of dose-response viability curve (769-P [17]),AUC of dose-response viability curve (786-O [18]),AUC of dose-response viability curve (A498 [19]),AUC of dose-response viability curve (ACHN [20]),AUC of dose-response viability curve (CAKI-1 [21]),AUC of dose-response viability curve (SN12C [22]),AUC of dose-response viability curve (TK-10 [23]),AUC of dose-response viability curve (UO-31 [24])
> 10000,> 10000,CNC(=O)c1ccc(-c2cnc3ncc(Cc4ccc5ncccc5c4)n3n2)cc1F,> 10000,> 10000,> 10000,> 10000,> 10000,> 10000,0.916,0.652,0.984,0.842,0.802,0.913,0.843,1.21,3.5,2.88,4.54,3.21,3.25,3.41,3.14,5.21
8260,2010,c1ccc2c(-c3cnn4cc(-c5ccc(N6CCNCC6)cc5)cnc34)ccnc2c1,2600,8210,1630,2800,7730,7440,0.00246,0.0032,0.00414,0.00139,0.00218,0.00261,0.00522,0.00507,2.86,3.55,3.76,2.68,2.96,2.88,2.64,6.11
465,2400,Nc1nc(Nc2ccc(S(N)(=O)=O)cc2)nn1C(=O)c1c(F)cccc1F,> 10000,> 10000,4580,4890,> 10000,2800,0.0485,0.00276,0.559,0.0118,0.0615,0.203,0.573,0.00913,3.08,1.8,3.39,2.85,3.13,2.99,2.77,3.19
29.6,63.1,COc1ncc(-c2ccc3nccc(-c4ccnnc4)c3c2)cc1NS(=O)(=O)c1ccc(F)cc1F,84.2,242,28.9,76.6,36.5,92,0.0336,0.00239,0.283,0.0976,0.0314,0.0986,0.0455,0.00994,1.4,1.11,2.32,1.46,1.08,1.49,1.23,1.49
58.7,215,CC(=O)Nc1cccc(-n2c(=O)n(C3CC3)c(=O)c3c(Nc4ccc(I)cc4F)n(C)c(=O)c(C)c32)c1,567,> 10000,228,1620,118,4610,0.257,0.332,0.735,0.312,0.201,0.405,0.289,0.382,2.26,1.76,3.29,1.81,1.93,2.39,1.67,3.28
396,9280,CCn1c(-c2nonc2N)nc2c(C#CC(C)(C)O)ncc(OC[C@H]3CCCNC3)c21,> 10000,> 10000,5920,> 10000,4510,> 10000,0.839,0.288,0.979,0.434,0.432,0.693,0.469,0.769,3.15,1.97,3.82,3.03,2.74,3.06,2.59,3.19
> 10000,> 10000,CCc1cc(Nc2nccc(-c3c(-c4ccc(OC)c(C(=O)Nc5c(F)cccc5F)c4)nc4ccccn34)n2)c(OC)cc1N1CCC(N2CCN(S(C)(=O)=O)CC2)CC1,> 10000,> 10000,> 10000,> 10000,> 10000,> 10000,0.828,0.785,1.04,0.804,0.635,0.858,0.865,1,3.26,3.37,4.54,3.03,3.12,3.17,3.23,5.43
342,161,Cc1cnc(NC(=O)Nc2cc(Br)c(C)cc2OC[C@@H]2CNCCO2)cn1,> 10000,3570,1390,4660,580,745,0.0604,0.00129,0.0991,0.0243,0.145,0.175,0.156,0.00586,2.27,2,3.76,1.82,2.83,3.07,2.25,3.67
6610,> 10000,C[C@@H]1CN(CC(=O)Nc2ccc3c(c2)Cc2cccc(-c4cc(=O)cc(N5CCOCC5)o4)c2S3)C[C@H](C)O1,> 10000,> 10000,4000,> 10000,> 10000,> 10000,0.855,0.35,0.893,0.548,0.224,0.646,0.701,1.35,3.53,3.37,4.69,3.15,2.8,3.35,3.25,6.19
> 10000,136,c1ccc2c(CCNc3ccc(Nc4ccncc4)cc3)c[nH]c2c1,532,1360,660,881,1030,115,0.0434,0.00353,0.022,0.00286,0.0912,0.0036,0.00837,0.00809,2.32,0.978,2.76,1.55,2.31,2.28,2.34,1.6
> 10000,70.5,O=c1cc(-c2cccc3c2Sc2ccccc2S3)oc(N2CCOCC2)c1,> 10000,> 10000,> 10000,> 10000,> 10000,> 10000,0.864,0.638,0.864,0.496,0.648,0.864,0.791,0.981,3.21,2.98,3.49,2.57,3.06,3.23,3.14,4
84.3,387,CCn1cc(-c2ccnc3[nH]c(-c4cccc(CN(C)C)c4)cc23)c(-c2ccc(NC(=O)N(C)C)cc2)n1,1440,3070,490,686,1530,6090,0.165,0.0121,0.121,0.0251,0.0471,0.0272,0.0985,0.0615,2.8,1.97,3.74,2.08,2.3,2.2,2.54,5.13
300,1980,Cc1cc(Nc2cc(CN3CCOCC3)c3nc(C)c(Cc4ccc(Cl)cc4F)n3n2)[nH]n1,4130,8520,2280,3840,3030,7640,0.063,0.00692,0.338,0.103,0.0334,0.216,0.0389,0.0145,3.12,1.96,4.33,2.79,3.03,2.89,2.8,4.69
19.4,89.1,C[C@@H](Oc1cc(-n2cnc3ccc(CN4CCN(C)CC4)cc32)sc1C(N)=O)c1ccccc1C(F)(F)F,69.7,> 10000,153,120,1340,44.9,0.0562,0.00395,0.599,0.172,0.17,0.234,0.235,0.00269,1.49,0.807,2.98,1.75,1.77,1.92,2.36,1.4
> 10000,2190,CC(C)(C)Cn1c(N)nc2ccc(-c3[nH]c(C(C)(C)C)nc3-c3ccc(F)cc3)nc21.CS(=O)(=O)O.CS(=O)(=O)O,> 10000,> 10000,8160,> 10000,6630,> 10000,0.709,0.636,0.972,0.407,0.512,0.811,0.564,0.733,2.98,2.91,4.16,2.41,2.63,3.15,2.43,3.5
772,592,COc1ccc(-c2ccc3c(N4CCOCC4)nc(N4C[C@@H](C)O[C@@H](C)C4)nc3n2)cc1CO,2120,4900,1080,1360,724,1630,0.214,0.26,0.379,0.141,0.174,0.223,0.222,0.012,2.66,2.03,3.62,2.23,2.53,2.49,2.23,2.98
1490,3020,CNC(=O)c1c(F)cccc1Nc1nc(Nc2cc3c(cc2OC)CCN3C(=O)CN(C)C)nc2[nH]ccc12,2400,8550,3460,4020,3140,8350,0.016,0.00507,0.0165,0.00292,0.00594,0.00561,0.142,0.0181,2.73,2.4,4.86,2.82,2.94,2.88,2.69,4.52
> 10000,> 10000,Cn1cc(-c2ccc3nnc(C(F)(F)c4ccc5ncccc5c4)n3n2)cn1,> 10000,> 10000,> 10000,> 10000,> 10000,> 10000,0.868,0.862,1.05,0.792,0.59,0.93,0.799,1.12,3.38,3.59,4.15,3.24,2.4,3.44,3.33,4.62

Compound,"GI50, drug alone (786-O [2]) [nM]","GI50, drug alone (ACHN [4]) [nM]","GI50, drug alone (769-P [1]) [nM]","GI50, drug alone (A498 [3]) [nM]","GI50, drug alone (CAKI-1 [5]) [nM]","GI50, drug alone (SN12C [6]) [nM]","GI50, drug alone (TK-10 [7]) [nM]","GI50, drug alone (UO-31 [8]) [nM]",minimum viability across doses (769-P [9]),minimum viability across doses (786-O [10]),minimum viability across doses (A498 [11]),minimum viability across doses (ACHN [12]),minimum viability across doses (CAKI-1 [13]),minimum viability across doses (SN12C [14]),minimum viability across doses (TK-10 [15]),minimum viability across doses (UO-31 [16]),AUC of dose-response viability curve (769-P [17]),AUC of dose-response viability curve (786-O [18]),AUC of dose-response viability curve (A498 [19]),AUC of dose-response viability curve (ACHN [20]),AUC of dose-response viability curve (CAKI-1 [21]),AUC of dose-response viability curve (SN12C [22]),AUC of dose-response viability curve (TK-10 [23]),AUC of dose-response viability curve (UO-31 [24])
Cc1ccccc1-n1c(Cn2cnc3c(N)ncnc32)nc2cccc(C)c2c1=O,7980,> 10000,> 10000,> 10000,> 10000,> 10000,> 10000,> 10000,0.856,0.434,0.955,0.813,0.717,0.814,0.758,0.821,3.25,2.46,3.88,3.17,3.12,3.12,2.93,3.41
